# Experimental data from PMC11746142, “Structural plasticity of bacterial ESCRT-III protein PspA in higher-order assemblies” (Nature Structural & Molecular Biology, 2024).
# Key:
# [1] = biological target: T1, PspA (SynPspA, PspA wild type, slr1188) (Synechocystis sp. PCC 6803, UniProt P74717); assay: inhibition of ATPase activity; format: biochemical; conditions: high concentration needed; against ATP hydrolysis; non-hydrolysable analogue
# T1 construct: gene im30; 28 kDa band
# [2] = biological target: T1, PspA (SynPspA, PspA wild type, slr1188); assay: cryo-EM structure of helical rods; format: binding; conditions: rods refolded with 2 mM ATP, 4 mM MgCl2; ADP modelled in weak density, incomplete occupancy; site near α3/α4 loop between four chains; 180, 200, 215, 235 Å rods
# [3] = biological target: T1, PspA (SynPspA, PspA wild type, slr1188); assay: inhibition of ATPase activity; format: biochemical; conditions: high concentration needed; against ATP hydrolysis; non-hydrolysable analogue; remark: listed apart in the source
# [4] = biological target: T2, PspA (SynPspA, PspA wild type, slr1188) (Synechocystis sp. PCC 6803, UniProt P74717, R44K/E126Q/E179Q); assay: bound nucleotide by HPLC-MS/MS after washing; malachite-green ATPase; format: biochemical; conditions: 2 mM ATP, 4 mM MgCl2, 10 mM Tris-HCl pH 8.0, 37 °C, 24 h
# T2 construct: gene im30; 28 kDa band
# [5] = biological target: T1, PspA (SynPspA, PspA wild type, slr1188); assay: malachite-green phosphate release; ADP-Glo; bound nucleotide by HPLC-MS/MS; format: biochemical; conditions: 2 mM ATP, 4 mM MgCl2, 10 mM Tris-HCl pH 8.0, 37 °C
# PspA α1–α5 = biological target: T3, PspA α1–α5 (Synechocystis sp. PCC 6803, UniProt P74717); assay: malachite-green phosphate release; ADP-Glo; format: biochemical; conditions: 2 mM ATP, 4 mM MgCl2, 10 mM Tris-HCl pH 8.0, 37 °C
# T3 construct: gene im30; helix α0 removed (amino acids 1-23 in Methods; 'first 22 amino acids' in Results); 25 kDa band
# PspF(1–275) (EcoPspF) = biological target: T4, PspF(1–275) (EcoPspF) (Escherichia coli, UniProt P37344); assay: ATPase activity; format: biochemical; conditions: comparison ATPase
# T4 construct: residues 1-275, E. coli BL21 (DE3), pET50(b)-derived plasmid, Ni-NTA purified
# T4 sequence (P37344 1-275): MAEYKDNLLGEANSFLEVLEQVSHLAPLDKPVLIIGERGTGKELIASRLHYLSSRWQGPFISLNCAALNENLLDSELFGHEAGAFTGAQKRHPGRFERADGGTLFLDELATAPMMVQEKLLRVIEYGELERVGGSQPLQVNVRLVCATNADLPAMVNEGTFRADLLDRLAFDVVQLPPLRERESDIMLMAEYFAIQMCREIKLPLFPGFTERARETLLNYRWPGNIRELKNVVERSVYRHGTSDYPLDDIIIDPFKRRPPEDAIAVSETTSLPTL
# T1 sequence (P74717 entry or part of it): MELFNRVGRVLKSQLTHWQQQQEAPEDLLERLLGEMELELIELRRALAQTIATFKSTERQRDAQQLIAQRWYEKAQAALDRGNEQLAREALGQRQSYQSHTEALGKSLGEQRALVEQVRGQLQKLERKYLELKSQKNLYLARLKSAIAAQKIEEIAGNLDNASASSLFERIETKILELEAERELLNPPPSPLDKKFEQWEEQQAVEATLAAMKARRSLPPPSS
# T3 sequence (P74717 entry or part of it): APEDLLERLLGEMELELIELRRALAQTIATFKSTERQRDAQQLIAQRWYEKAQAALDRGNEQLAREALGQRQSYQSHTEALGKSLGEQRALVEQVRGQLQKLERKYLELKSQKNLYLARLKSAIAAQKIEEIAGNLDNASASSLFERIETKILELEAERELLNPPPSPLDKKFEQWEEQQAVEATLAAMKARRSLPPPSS
# T2 sequence (P74717 entry or part of it R44K/E126Q/E179Q): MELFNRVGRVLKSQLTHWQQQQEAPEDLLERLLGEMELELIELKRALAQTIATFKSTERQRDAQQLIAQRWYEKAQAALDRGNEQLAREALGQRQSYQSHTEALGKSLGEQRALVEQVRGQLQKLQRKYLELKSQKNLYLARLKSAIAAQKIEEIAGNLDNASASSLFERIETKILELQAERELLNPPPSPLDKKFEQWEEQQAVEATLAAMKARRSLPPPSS
smiles,measurement,setting,value
Nc1ncnc2c1ncn2[C@@H]1O[C@H](COP(=O)(O)OP(=O)(O)CP(=O)(O)O)[C@@H](O)[C@H]1O [AMPPCP],ATPase activity vs AMPPCP concentration,[1],could be decreased by high concentrations of ATPase inhibitors such as ATPγS or AMPPCP
Nc1ncnc2c1ncn2[C@@H]1O[C@H](COP(=O)(O)OP(=O)(O)O)[C@@H](O)[C@H]1O [ADP],cryo-EM structure of helical rods,[2],Models of PspA apo (PDB:7ABK) and PspA+ATP with an ADP model fitted
Nc1ncnc2c1ncn2[C@@H]1O[C@H](COP(=O)(O)OP(=O)(O)OP(O)(O)=S)[C@@H](O)[C@H]1O [ATPγS],ATPase activity vs ATPγS concentration,[3],could be decreased by high concentrations of ATPase inhibitors such as ATPγS or AMPPCP
Nc1ncnc2c1ncn2[C@@H]1O[C@H](COP(=O)(O)OP(=O)(O)OP(=O)(O)O)[C@@H](O)[C@H]1O [ATP],bound nucleotide by HPLC-MS/MS after washing; malachite-green ATPase,[4],R44K/E126Q/E179Q mutant was still capable of ATP binding and hydrolysis
same,malachite-green phosphate release; ADP-Glo; bound nucleotide by HPLC-MS/MS,[5],PspA can bind and hydrolyze ATP
same,malachite-green phosphate release; ADP-Glo,PspA α1–α5,did not significantly reduce the ATPase activity
same,ATPase activity,PspF(1–275) (EcoPspF),"approximately ten times lower than bona fide AAA+ ATPases, such as E. coli PspF"
